Assay results taken from patent US5506213A, “Adminstration of 2'-halo-2'-deoxy adenosine to treat inflammatory bowel disease” (priority 1994, dated 1996).

Legend:
autoantibody production = experiment: 2-Chlorodeoxyadenosine in autohemolytic anemia patients; format: in vivo, human
Text: Thus, the present invention provides a method for decreasing the number of circulating blood monocytes.

[1] = system: 2 week old cultured monocytes (differentiated macrophages); experiment: In vitro cytotoxicity toward 2 week old cultured monocytes; format: cell-based, human
[2] = system: intact human cells or cell extracts; settings: cited from earlier work
[3] = system: DNA strand breaks in human monocytes; experiment: DNA damage in monocytes, fluorescent assay for DNA unwinding in alkaline solution; format: cell-based; settings: for additional residual double-stranded DNA (repair) after CdA removal: over the next four hours
Experimental: FIG. 4 is a graph of the dose- and time-dependence for CdA in inducing DNA strand breaks in monocytes in vitro.
Monocytes were plated as discussed previously, and were then contacted with compositions containing various concentrations of CdA. The amount of DNA damage in monocytes exposed to CdA was determined by the fluorescent assay for DNA unwinding in alkaline solution described by Birnboim and Jevcak (1981) Cancer Res., 41:1889-1892, modified to accommodate lower cell numbers (Thierry et al. (1985) Radiation Res., 102:347-358).
The unwinding rate of DNA in alkaline solution at 15 degrees C. is proportional to the number of DNA strand breaks or alkali-labile sites. The ethidium bromide fluorescence of residual duplex DNA in samples exposed to pH 12.8 for one hour was compared to the fluorescence of a DNA aliquot that was not exposed to alkali. The percent residual double-stranded DNA at 1 hour was taken as a measure of the DNA damage in the sample. The results are illustrated in FIG. 4.
The repair of monocyte DNA damage caused by CdA was compared to the damage caused by gamma irradiation. Monocytes were pre-exposed to 0.1 or 1.0 μM CdA for four hours. At the end of this time, approximately 60 percent residual double-stranded DNA was present in the cells. The CdA was removed, and the amount of residual double-stranded DNA was calculated over the next four hours. Any increase in doublestranded DNA represents ongoing repair mechanisms.

rheumatoid arthritis = experiment: CdA 5-day continuous infusion in rheumatoid arthritis patients: cell counts and joint parameters; format: in vivo, human
Experimental: FIG. 7 is a graph showing the results of a study of the cytotoxicity of CdA toward monocytes and lymphocytes of a rheumatoid arthritis patient receiving CdA therapy. A continuous intravenous infusion of CdA (0.1 mg/ml in isotonic saline) was administered at a dosage of 0.1 mg/kg per day for a five-day period. Monocyte numbers are shown as open squares and lymphocyte numbers are shown as closed diamonds. Three cycles of infusions of CdA were given, and are illustrated as open rectangles for the five-day time periods of each infusion at a position in the graph above the days in the treatment regimen on which infusions were given.
A study similar to that described in Example 1 was carried out with three patients having rheumatoid arthritis. In each instance, the patient had been unsuccessfully treated with methotrexate, a gold salt or penicillamine, which treatment had been stopped three weeks prior to the first treatment with CdA. […]
A specially trained nurse examined the number of swollen and painful joints in each of the patients prior to the start of each treatment. The values obtained are as listed for each patient.
PIP joint measurements refer to the total arthrocircameter measurements, in mm, of each proximal interphalangeal (PIP) joint, for each patient. Values are shown for each of the three patients.
Each patient was asked to rank his or her performance of nine function parameters on a 0 to 10 scale, 10 being the highest. These function parameters were: turning in bed, rising from a chair, buttoning buttons, combing hair, walking, turning knobs, climbing stairs, getting in and out of an automobile, and general well being. The total score on these nine parameters for each patient is listed as the performance index.

[4] = system: freshly isolated human monocytes; experiment: Dose- and time-dependence of CdA cytotoxicity toward monocytes; format: cell-based; settings: 50 nM CdA (FIG. 3)
Experimental: FIG. 3 is a graph of the dose- and time-dependence of 2-chlorodeoxyadenosine (CdA) cytotoxicity toward human monocytes in vitro.
Freshly isolated human monocytes were cultured at a concentration of 10^5 cells/well in 96-well flat-bottom tissue culture plates. The cells were incubated in complete medium (Example 2) for about 12 hours following initial plating. The cells were then treated by the addition of various concentrations of CdA to form monocyte-containing compositions specific wells and the plates were incubated, as discussed previously.
The percentage of viable cells that were present in wells containing the treated monocytes was determined daily for six days.

[5] = Pt. # 1, CdA treatment course 1
[6] = Pt. # 1, CdA treatment course 2
[7] = Pt. # 1, CdA treatment course 3
[8] = Pt. # 1, prior to start of CdA treatment course 1
[9] = Pt. # 1, prior to start of CdA treatment course 2
[10] = Pt. # 1, prior to start of CdA treatment course 3
[11] = Pt. # 2, CdA treatment course 1
[12] = Pt. # 2, CdA treatment course 2
[13] = Pt. # 2, CdA treatment course 3
[14] = Pt. # 2, prior to start of CdA treatment course 1
[15] = Pt. # 2, prior to start of CdA treatment course 2
[16] = Pt. # 2, prior to start of CdA treatment course 3
[17] = Pt. # 2, prior to start of CdA treatment course 4
[18] = Pt. # 2, prior to start of CdA treatment course 5
[19] = Pt. # 2, prior to start of CdA treatment course 6
[20] = Pt. # 3, CdA treatment course 1
[21] = Pt. # 3, CdA treatment course 2
[22] = Pt. # 3, CdA treatment course 3
[23] = Pt. # 3, prior to start of CdA treatment course 1
[24] = Pt. # 3, prior to start of CdA treatment course 2
[25] = Pt. # 3, prior to start of CdA treatment course 3
[26] = Pt. # 3, prior to start of CdA treatment course 4

What does the source list for `Nc1nc(Cl)nc2c1ncn2[C@H]1C[C@H](O)[C@@H](CO)O1` [CdA, 2-chloro-9,1'-beta-D-2'-deoxyribosyladenine]?
autoantibody production (autoantibody production): significant decrease in autoantibody production; hemolysis (autoantibody production): reduction in hemolysis; IC50 ([1]; Homo sapiens, Monocyte, 336 h, read-out: CdA concentration at which 50 percent of 2 week old cultured monocytes were killed): > 250 nM; increase in resistance of 2 week old cultured versus freshly isolated monocytes ([1]; human, monocytes): over 12.5 times; phosphorylation ([2]; T lymphocytes): phosphorylated efficiently; catabolism ([2]; intact human cells or cell extracts): not catabolized significantly; time to appearance of DNA breaks ([3]; 10 nM CdA): ≤ 2 h; additional residual double-stranded DNA (repair) after CdA removal ([3]; 0.1 μM CdA): 10%; additional residual double-stranded DNA (repair) after CdA removal ([3]; 1.0 μM CdA): no increase; residual double-stranded DNA ([3]; pre-exposed to 0.1 or 1.0 μM CdA for four hours): approximately 60%; PIP Joint Measurement (Totals, in mm) (rheumatoid arthritis; [5]): 583 mm; Performance Index (total score on nine function parameters, each 0 to 10) (rheumatoid arthritis; [5]): 70; PIP Joint Measurement (Totals, in mm) (rheumatoid arthritis; [6]): 612 mm; Performance Index (total score on nine function parameters, each 0 to 10) (rheumatoid arthritis; [6]): 33; PIP Joint Measurement (Totals, in mm) (rheumatoid arthritis; [7]): 560 mm; Performance Index (total score on nine function parameters, each 0 to 10) (rheumatoid arthritis; [7]): 27; Painful Joints (rheumatoid arthritis; [8]): 73/38; Swollen Joints (rheumatoid arthritis; [8]): 51/47; Painful Joints (rheumatoid arthritis; [9]): 39; Swollen Joints (rheumatoid arthritis; [9]): 37; Painful Joints (rheumatoid arthritis; [10]): 23; Swollen Joints (rheumatoid arthritis; [10]): 25; PIP Joint Measurement (Totals, in mm) (rheumatoid arthritis; [11]): 527 mm; Performance Index (total score on nine function parameters, each 0 to 10) (rheumatoid arthritis; [11]): 46; PIP Joint Measurement (Totals, in mm) (rheumatoid arthritis; [12]): 526 mm; Performance Index (total score on nine function parameters, each 0 to 10) (rheumatoid arthritis; [12]): 28; PIP Joint Measurement (Totals, in mm) (rheumatoid arthritis; [13]): 531 mm; Performance Index (total score on nine function parameters, each 0 to 10) (rheumatoid arthritis; [13]): 22; PIP Joint Measurement (Totals, in mm) (rheumatoid arthritis; Pt. # 2, CdA treatment course 4): 498 mm; PIP Joint Measurement (Totals, in mm) (rheumatoid arthritis; Pt. # 2, CdA treatment course 5): 485 mm; PIP Joint Measurement (Totals, in mm) (rheumatoid arthritis; Pt. # 2, CdA treatment course 6): 506 mm; Painful Joints (rheumatoid arthritis; [14]): 32; Swollen Joints (rheumatoid arthritis; [14]): 9; Painful Joints (rheumatoid arthritis; [15]): 34; Swollen Joints (rheumatoid arthritis; [15]): 27; Painful Joints (rheumatoid arthritis; [16]): 28; Swollen Joints (rheumatoid arthritis; [16]): 25; Painful Joints (rheumatoid arthritis; [17]): 36; Swollen Joints (rheumatoid arthritis; [17]): 22; Painful Joints (rheumatoid arthritis; [18]): 27; Swollen Joints (rheumatoid arthritis; [18]): 23; Painful Joints (rheumatoid arthritis; [19]): 26; Swollen Joints (rheumatoid arthritis; [19]): 14; PIP Joint Measurement (Totals, in mm) (rheumatoid arthritis; [20]): 560 mm; Performance Index (total score on nine function parameters, each 0 to 10) (rheumatoid arthritis; [20]): 30; PIP Joint Measurement (Totals, in mm) (rheumatoid arthritis; [21]): 548 mm; Performance Index (total score on nine function parameters, each 0 to 10) (rheumatoid arthritis; [21]): 36; PIP Joint Measurement (Totals, in mm) (rheumatoid arthritis; [22]): 549 mm; Performance Index (total score on nine function parameters, each 0 to 10) (rheumatoid arthritis; [22]): 32; PIP Joint Measurement (Totals, in mm) (rheumatoid arthritis; Pt. # 3, CdA treatment course 4): 602 mm; Painful Joints (rheumatoid arthritis; [23]): 36; Swollen Joints (rheumatoid arthritis; [23]): 16; Painful Joints (rheumatoid arthritis; [24]): 40; Swollen Joints (rheumatoid arthritis; [24]): 17; Painful Joints (rheumatoid arthritis; [25]): 54; Swollen Joints (rheumatoid arthritis; [25]): 14; Painful Joints (rheumatoid arthritis; [26]): 59; Swollen Joints (rheumatoid arthritis; [26]): 11; time for monocyte numbers to return to approximately pre-treatment number (rheumatoid arthritis; after infusion of CdA was stopped for each cycle): within about ten days; arthritic disease states at follow-up (rheumatoid arthritis; all three patients, reported by personal physicians): had improved; total white cell count drop from pretreatment values (rheumatoid arthritis; follow-up, two patients, lasted about three years and over one year post treatment): about 50%; adverse event leading to drop-out (rheumatoid arthritis; one patient, after CdA treatment): overwhelming fatigue phenomenon; monocyte number (rheumatoid arthritis; patient 1, during each CdA administration cycle, 0.1 mg/kg per day, five days): dropped to substantially zero; neutrophil and platelet numbers (rheumatoid arthritis; patient 1, throughout the one hundred days of the study): substantially constant; patients with a reduction in the number of painful or swollen joints (rheumatoid arthritis; three rheumatoid arthritis patients): two of the three patients; cell viability [4]: significant decrease in cell viability within two days
